# According to patent US5928910A, “Antifungal substances BE-49385 and process for their production” (Banyu Pharmaceutical Co., Ltd., priority 1995, dated 1999):
# Experiments:
# [1] = Solubility; assay type: physicochemical
# [2] = test system: Kluyveromyces lactis IFO 1267; test: MIC by agar dilution method, Kluyveromyces lactis IFO 1267; assay type: cell-based; details: IFO1267, 72 h, 28° C., 3 days, read-out: MIC (minimum inhibitory concentration)
# Procedure: (§1) The minimum inhibitory concentrations of antifungal substances BE-49385 against various fungi were measured. The measurement of MIC was carried out by an agar dilution method using a culture medium prepared by mixing 900 ml of an agar solution containing 2.5 g of sterilized dipotassium hydrogenphosphate and 15 g of agar, with a solution obtained by dissolving 6.7 g of a yeast nitrogen base (manufactured by Difico Co.) and 10 g of glucose in 100 ml of purified water, followed by sterilization by means of sterilizing filter. BE-49385 was dissolved in dimethylsulfoxide to a concentration of 10 mg/ml and further diluted with dimethylsulfoxide to obtain a twice diluted series, and the dimethylsulfoxide concentration in the agar plate was adjusted to be 1%. On the prepared agar plate, 5 μl of the test strain solution adjusted to a concentration of 10^6 cells per 1 ml, was dropped, followed by culturing at 28° C. for 3 days, whereupon the growth was evaluated.
# (§2) The minimum inhibitory concentrations (MIC, unit: μ g/ml) of antifungal substance BE-49385A against various fungi, are shown in Table 1, and MICs of BE-49385 substances against Schizosaccharomyces pombe IAM4863 are shown in Table
# [3] = test system: Saccharomyces cerevisiae IFO 1267; test: MIC by agar dilution method, Saccharomyces cerevisiae IFO 1267; assay type: cell-based; details: IFO1267, 72 h, 28° C., 3 days, read-out: MIC (minimum inhibitory concentration)
# Procedure: as §1, §2
# [4] = test system: Candida albicans IFO 1385; test: MIC by agar dilution method, Candida albicans IFO 1385; assay type: cell-based; details: IFO1385, 72 h, 28° C., 3 days, read-out: MIC (minimum inhibitory concentration)
# Procedure: as §1, §2
# [5] = test system: Candida albicans IFO 1270; test: MIC by agar dilution method, Candida albicans IFO 1270; assay type: cell-based; details: IFO1270, 72 h, 28° C., 3 days, read-out: MIC (minimum inhibitory concentration)
# Procedure: as §1, §2
# [6] = test system: Penicillium chrysogenum IFO 6223; test: MIC by agar dilution method, Penicillium chrysogenum IFO 6223; assay type: cell-based; details: IFO6223, 72 h, 28° C., 3 days, read-out: MIC (minimum inhibitory concentration)
# Procedure: as §1, §2
# [7] = test system: Aspergillus niger IFO 31012; test: MIC by agar dilution method, Aspergillus niger IFO 31012; assay type: cell-based; details: IFO31012, 72 h, 28° C., 3 days, read-out: MIC (minimum inhibitory concentration)
# Procedure: as §1, §2
# [8] = test system: Schizosaccharomyces pombe IAM4863; test: MIC by agar dilution method, Schizosaccharomyces pombe IAM4863; assay type: cell-based; details: 72 h, 28° C., 3 days, read-out: MIC (minimum inhibitory concentration)
# Procedure: as §1, §2
Compound,Solubility in an organic solvent such as methanol or dimethylsulfoxide [1],Solubility in water [1],MIC [2],MIC [3],MIC [4],MIC [5],MIC [6],MIC [7],MIC [8]
C=C1C2CC3C(C(C)C)C(OC(=O)CC(C)(O)CC(C)CC)CC3(C)CC2C(C)=CCC2C(C)OC(=O)C(OC(C)=O)C12O (stereo not drawn) [BE-49385A-Ac],Readily soluble,hardly soluble,,,,,,,
C=C1C2CC3C(C(C)C)C(OC(=O)CC(C)(O)CC(C)CC)CC3(C)CC2C(C)=CCC2C(C)OC(=O)C(O)C12O (stereo not drawn) [BE-49385A],Readily soluble,hardly soluble,0.78 µg/mL,3.13 µg/mL,3.13 µg/mL,0.78 µg/mL,0.39 µg/mL,0.78 µg/mL,< 0.1 µg/mL
C=C1C2CC3C(C(C)C)C(OC(=O)C(O)CC(C)CC(C)CC)CC3(C)CC2C(C)=CCC2C(C)OC(=O)C(O)C12O (stereo not drawn) [BE-49385B],Readily soluble,hardly soluble,,,,,,,0.39 µg/mL
C=C1C2CC3C(C(C)C)C(OC(=O)CC(C)CC(C)CC)CC3(C)CC2C(C)=CCC2C(C)OC(=O)C(O)C12O (stereo not drawn) [BE-49385C],Readily soluble,hardly soluble,,,,,,,0.39 µg/mL
C=C1C2CC3C(C(C)C)C(OC(=O)C(O)c4ccccc4)CC3(C)CC2C(C)=CCC2C(C)OC(=O)C(O)C12O (stereo not drawn) [BE-49385D],Readily soluble,hardly soluble,,,,,,,0.78 µg/mL
C=C1C2CC3C(C(C)C)C(OC(=O)C(O)C(C)(O)CC(C)CC)CC3(C)CC2C(C)=CCC2C(C)OC(=O)C(O)C12O (stereo not drawn) [BE-49385E],Readily soluble,hardly soluble,,,,,,,0.2 µg/mL
C=C1C2CC3C(C(C)C)C(O)CC3(C)CC2C(C)=CCC2C(C)OC(=O)C(O)C12O (stereo not drawn) [BE-49385F],Readily soluble,hardly soluble,,,,,,,
C=C1C2CC3C(C(C)C)C(OC(=O)C(O)C(O)CCC(C)CC)CC3(C)CC2C(C)=CCC2C(C)OC(=O)C(O)C12O (stereo not drawn) [BE-49385G],Readily soluble,hardly soluble,,,,,,,0.39 µg/mL
C=C1C2CC3C(C(C)C)C(OC(=O)C(O)C(O)C(C)CC(C)CC)CC3(C)CC2C(C)=CCC2C(C)OC(=O)C(O)C12O (stereo not drawn) [BE-49385H],Readily soluble,hardly soluble,,,,,,,
